The record followed here is article PMC7475246, “Unravelling the effect of two herbicide resistance mutations on acetolactate synthase kinetics and growth traits” (Journal of Experimental Botany, 2020).

The assay deals with T1, acetolactate synthase (ALS; AHAS), ALS1 and ALS2.
T1 construct: native enzyme, partially purified by ammonium sulfate precipitation from young shoots (three- to four-leaf stage); mixture of ALS1 and ALS2
Kind of assay: in vitro ALS activity, colorimetric acetoin assay at […] nm. The following applies: 37 °C, 60 min; pH 7.5 HEPES, MgCl2, thiamine pyrophosphate, FAD; extract buffer with 200 mM pyruvate mixed 1:1 with MM; mean of three susceptible populations; read-out: I50. The assay is classed as biochemical, Alopecurus aequalis.

On to `COC(=O)c1ccc(CNS(C)(=O)=O)cc1S(=O)(=O)NC(=O)Nc1nc(OC)cc(OC)n1` [MM, mesosulfuron-methyl], for which the IC50 is 35.5 nM.
